Reference: ChEMBL document CHEMBL1138653, “Screening of antimicrobial activity of diarylamines in the 2,3,5-trimethylbenzo[b]thiophene series: a structure-activity evaluation study” (2004)
Converted amounts (≈) assume the structure as drawn. The source made the active and inactive calls. No cut-off for these calls is given here.

What was measured:
Pseudomonas aeruginosa [1] = experiment: Minimal inhibitory concentration against Pseudomonas aeruginosa; type: functional
Pseudomonas aeruginosa [2] = experiment: inhibition of Pseudomonas aeruginosa was measured by zone diameter; type: functional
Bacillus cereus [3] = experiment: Minimal inhibitory concentration against Bacillus cereus; type: functional
Bacillus cereus [4] = experiment: inhibition of Bacillus cereus was measured by zone diameter; type: functional
Bacillus subtilis [5] = experiment: Minimal inhibitory concentration against Bacillus subtilis; type: functional
Bacillus subtilis [6] = experiment: inhibition of Bacillus subtilis was measured by zone diameter; type: functional
Escherichia coli [7] = experiment: Diameter of the inhibition zone of Escherichia coli upon administration of compound; type: functional
Escherichia coli [8] = experiment: Minimal inhibitory concentration against Escherichia coli; type: functional
Candida albicans [9] = experiment: Minimal inhibitory concentration against Candida albicans; type: functional
Candida albicans [10] = experiment: inhibition of Candida albicans was measured by zone diameter; type: functional
Candida albicans [11] = experiment: Minimal inhibitory concentration against Candida albicans (CECT 1394) strain; Not active; type: functional, organism-based
Pseudomonas aeruginosa [12] = experiment: Minimal inhibitory concentration against Pseudomonas aeruginosa (CECT 108) strain; Not active; type: functional, organism-based
Bacillus cereus [13] = experiment: Minimal inhibitory concentration against Bacillus cereus (CECT 148) strain; Not active; type: functional, organism-based
Escherichia coli [14] = experiment: Minimal inhibitory concentration against Escherichia coli (CECT 101) strain; Not active; type: functional, organism-based
Bacillus subtilis [15] = experiment: Minimal inhibitory concentration against Bacillus subtilis (CECT 498) strain; Not active; type: functional, organism-based
Escherichia coli [16] = experiment: Minimal inhibitory concentration against Escherichia coli; Not active; type: functional, organism-based
Pseudomonas aeruginosa [17] = experiment: Minimal inhibitory concentration against Pseudomonas aeruginosa; Not active; type: functional, organism-based
Candida albicans [18] = experiment: Minimal inhibitory concentration against Candida albicans; Not active; type: functional, organism-based
Escherichia coli [19] = experiment: inhibition of Escherichia coli was measured by zone diameter; type: functional

| SMILES | MIC (Pseudomonas aeruginosa [1]) | Inhibition (Pseudomonas aeruginosa [2]) | MIC (Bacillus cereus [3]) | Inhibition (Bacillus cereus [4]) | MIC (Bacillus subtilis [5]) | Inhibition (Bacillus subtilis [6]) | Inhibition (Escherichia coli [7]) | MIC (Escherichia coli [8]) | MIC (Candida albicans [9]) | Inhibition (Candida albicans [10]) | MIC (Candida albicans [11]) | MIC (Pseudomonas aeruginosa [12]) | MIC (Bacillus cereus [13]) | MIC (Escherichia coli [14]) | MIC (Bacillus subtilis [15]) | MIC (Escherichia coli [16]) | MIC (Pseudomonas aeruginosa [17]) | MIC (Candida albicans [18]) | Inhibition (Escherichia coli [19]) |
| --- | --- | --- | --- | --- | --- | --- | --- | --- | --- | --- | --- | --- | --- | --- | --- | --- | --- | --- | --- |
| Cc1cc2c(C)c(C)sc2cc1Nc1ccccc1 | 200 mg/L (≈ 748 µM) | 16 mm | 200 mg/L (≈ 748 µM) | 18 mm | 200 mg/L (≈ 748 µM) | 8 mm | 4 mm | 200 mg/L (≈ 748 µM) | – | – | – | – | – | – | – | – | – | – | – |
| COc1ccc(Nc2cc3sc(C)c(C)c3cc2C)cc1 | 1000 mg/L (≈ 3360 µM) | 8 mm | 100 mg/L (≈ 336 µM) | 4 mm | 50 mg/L (≈ 168 µM) | 19 mm | 4 mm | 1000 mg/L (≈ 3360 µM) | 12.5 mg/L (≈ 42 µM) | 6 mm | – | – | – | – | – | – | – | – | – |
| Cc1ccc2sc(C)c(C)c2c1 | – | – | – | – | – | – | – | – | – | – | inactive | inactive | inactive | inactive | inactive | – | – | – | – |
| Cc1cc2c(C)c(C)sc2cc1Nc1ccc(F)cc1 | – | – | 200 mg/L (≈ 701 µM) | 12 mm | 200 mg/L (≈ 701 µM) | 10 mm | – | – | – | – | – | – | – | – | – | inactive | inactive | – | – |
| O=C(N[C@H](CO)[C@H](O)c1ccc([N+](=O)[O-])cc1)C(Cl)Cl [CHLORAMPHENICOL] | – | – | 3.13 mg/L (≈ 9.69 µM) | 8 mm | – | – | – | – | – | – | – | – | – | – | – | – | – | – | – |
| COc1ccc(Nc2cc3sc(C)c(C)c3cc2C)cc1OC | 1000 mg/L (≈ 3050 µM) | 10 mm | 200 mg/L (≈ 611 µM) | 24 mm | 200 mg/L (≈ 611 µM) | 10 mm | – | – | 25 mg/L (≈ 76.3 µM) | 8 mm | – | – | – | – | – | inactive | – | – | – |
| Cc1cc2c(C)c(C)sc2cc1Nc1ccccc1F | – | – | 200 mg/L (≈ 701 µM) | 9 mm | 50 mg/L (≈ 175 µM) | 8 mm | – | – | – | – | – | – | – | – | – | inactive | – | – | – |
| Cc1cc2c(C)c(C)sc2cc1Br | – | – | 1000 mg/L (≈ 3920 µM) | 12 mm | 500 mg/L (≈ 1960 µM) | 18 mm | – | – | – | – | – | – | – | – | – | inactive | inactive | inactive | – |
| Cc1cc2c(C)c(C)sc2cc1N | – | – | 500 mg/L (≈ 2610 µM) | 10 mm | 500 mg/L (≈ 2610 µM) | 17 mm | – | – | 1000 mg/L (≈ 5230 µM) | 13 mm | – | – | – | – | – | inactive | inactive | – | – |
| CC1(C)S[C@@H]2[C@H](NC(=O)[C@H](N)c3ccccc3)C(=O)N2[C@H]1C(=O)O [AMPICILLIN] | 6.25 mg/L (≈ 17.9 µM) | 12 mm | 3.13 mg/L (≈ 8.96 µM) | 13 mm | 12.5 mg/L (≈ 35.8 µM) | 10 mm | – | 6.25 mg/L (≈ 17.9 µM) | – | – | – | – | – | – | – | – | – | – | 15 mm |
